The text below walks through data of patent publication US8148373B2, “Compounds” (AstraZeneca AB, priority 2008, dated 2012).

Structures can show the parent of a compound that is named as a salt.

The target of assay [1] is T1, human muscarinic acetylcholine M3 receptor (M3-ACh) (Homo sapiens, UniProt P20309).
T1 construct: expressed in transfected cells; host or cells: CHO-K1 (Chinese Hamster Ovary) cell membranes
The experiment in a line: Muscarinic 3 Receptor Binding Assay ([3H]NMS competition, SPA). Conditions: [3H]NMS 0.1 nM, CHO-K1 cell membranes, 16 hours at room temperature; read-out: M3 pIC50 (converted). The procedure, abridged: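 Competition SPA binding of 0.1 nM [3H]NMS (quarter Kd) to membranes from CHO-K1 cells expressing human M3, in 20 mM HEPES pH 7.4, 5 mM MgCl2, 1% DMSO. Incubated 16 h at room temperature; non-specific binding with 1 µM atropine. pIC50 from 50% reduction of specific binding.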

Assay [2] concerns the target T2, Adrenergic β2 (H292 cells) (Homo sapiens, UniProt P07550).
T2 construct: endogenous in cells; host or cells: H292 cells
The experiment in a line: Assay for Adrenergic β2 Mediated cAMP Production (concentration response, AlphaScreen cAMP detection). It is filed as cell-based. The settings on record: for EC50: cAMP production, 60 minutes at room temperature, 300 μM rolipram, read-out: β2 pEC50 (converted); for β2 Intrinsic activity: fraction relative to the maximum activity determined for formoterol. A digest of the protocol:
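H292 cells plated overnight, pre-treated with rolipram (300 μM final) 10 min, then compound 60 min at room temperature in HBSS/10 mM HEPES pH7.4/5 mM glucose, 1% DMSO. Lysate cAMP read by AlphaScreen against a cAMP standard curve; 4-parameter fit gives pEC50 and intrinsic activity as fraction of formoterol maximum.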
Background: Bead proximity is the source of the signal in Alpha formats.

T2 sequence (P07550 whole entry): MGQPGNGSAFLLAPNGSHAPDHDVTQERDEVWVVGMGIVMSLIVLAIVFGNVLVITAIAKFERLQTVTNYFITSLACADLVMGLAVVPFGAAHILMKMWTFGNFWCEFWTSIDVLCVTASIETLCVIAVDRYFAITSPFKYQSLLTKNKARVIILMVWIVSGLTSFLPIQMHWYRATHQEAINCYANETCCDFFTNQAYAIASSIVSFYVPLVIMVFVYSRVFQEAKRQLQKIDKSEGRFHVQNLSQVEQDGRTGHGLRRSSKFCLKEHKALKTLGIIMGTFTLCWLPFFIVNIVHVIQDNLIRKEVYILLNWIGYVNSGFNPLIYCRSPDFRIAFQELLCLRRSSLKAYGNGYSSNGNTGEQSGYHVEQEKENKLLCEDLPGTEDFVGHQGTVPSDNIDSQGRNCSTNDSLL
T1 sequence (P20309 whole entry): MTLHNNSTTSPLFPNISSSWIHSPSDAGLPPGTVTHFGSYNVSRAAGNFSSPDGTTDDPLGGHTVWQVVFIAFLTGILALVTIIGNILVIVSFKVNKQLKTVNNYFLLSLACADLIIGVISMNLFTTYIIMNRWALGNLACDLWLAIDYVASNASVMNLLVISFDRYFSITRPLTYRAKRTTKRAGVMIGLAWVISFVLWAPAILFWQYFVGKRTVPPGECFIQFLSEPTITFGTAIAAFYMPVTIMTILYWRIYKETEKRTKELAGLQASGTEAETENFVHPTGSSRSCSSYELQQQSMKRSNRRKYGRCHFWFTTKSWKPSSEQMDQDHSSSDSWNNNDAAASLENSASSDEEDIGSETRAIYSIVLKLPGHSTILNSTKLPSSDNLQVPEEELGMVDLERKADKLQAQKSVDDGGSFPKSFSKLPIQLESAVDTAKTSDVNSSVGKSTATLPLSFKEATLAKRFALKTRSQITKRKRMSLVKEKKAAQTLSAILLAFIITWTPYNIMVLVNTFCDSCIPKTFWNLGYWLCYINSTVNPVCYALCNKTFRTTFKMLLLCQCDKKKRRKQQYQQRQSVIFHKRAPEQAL

On to `CC(C)c1nc(C(=O)N2CCOC3(CCN(Cc4cccc5c(CNC[C@H](O)c6ccc(O)c7[nH]c(=O)sc67)cccc45)CC3)C2)cs1` [Example 62, (R)-4-Hydroxy-7-(1-hydroxy-2-((5-((4-(2-isopropylthiazole-4-carbonyl)-1-oxa-4,9-diazaspiro[5.5]undecan-9-yl)methyl)naphthalen-1-yl)methylamino)ethyl)benzo[d]thiazol-2(3H)-one ditrifluoroacetate], for which, in assay [1], the IC50 was 251 nM. Also, in assay [2], the EC50 was 251 nM and the “β2 Intrinsic activity” value amounted to 0.9.

Consider `O=C(c1ccc2occc2c1)N1CCOC2(CCN(Cc3cccc(CCNC[C@H](O)c4ccc(O)c5[nH]c(=O)sc45)c3)CC2)C1` [Example 266, (R)-7-(2-(3-((4-(Benzofuran-5-carbonyl)-1-oxa-4,9-diazaspiro[5.5]undecan-9-yl)methyl)phenethylamino)-1-hydroxyethyl)-4-hydroxybenzo[d]thiazol-2(3H)-one ditrifluoroacetic acid], for which the IC50 in assay [1] is 0.316 nM. In assay [2], the EC50 was 7.94 nM and the “β2 Intrinsic activity” value came to 0.7.

`CCCc1nc(C(=O)N2CCOC3(CCN(Cc4cc(F)cc(CCNC[C@H](O)c5ccc(O)c6[nH]c(=O)sc56)c4)CC3)C2)cs1` [Example 56, (R)-7-(2-(3-Fluoro-5-((4-(2-propylthiazole-4-carbonyl)-1-oxa-4,9-diazaspiro[5.5]undecan-9-yl)methyl)phenethylamino)-1-hydroxyethyl)-4-hydroxybenzo[d]thiazol-2(3H)-one ditrifluoroacetate]: the IC50 in assay [1] is 2.51 nM. Further, in assay [2], the EC50 was 7.94 nM and the “β2 Intrinsic activity” value is listed as 1.

For `CC(C)c1nc(C(=O)N2CCOC3(CCN(Cc4cc(CCNC[C@H](O)c5ccc(O)c6[nH]c(=O)sc56)ccc4F)CC3)C2)cs1` [Example 40, (R)-7-(2-(4-Fluoro-3-((4-(2-isopropylthiazole-4-carbonyl)-1-oxa-4,9-diazaspiro[5.5]undecan-9-yl)methyl)phenethylamino)-1-hydroxyethyl)-4-hydroxybenzo[d]thiazol-2(3H)-one ditrifluoroacetate], in assay [1], the IC50 was 0.398 nM. In assay [2], the EC50 is 12.6 nM and the “β2 Intrinsic activity” value is recorded as 1.1.

As to `CC(C)c1cc(C(=O)N2CCOC3(CCN(Cc4cccc(CC(C)(C)NC[C@H](O)c5ccc(O)c6[nH]c(=O)ccc56)c4)CC3)C2)cs1` [Example 275, (R)-8-Hydroxy-5-(1-hydroxy-2-(1-(3-((4-(5-isopropylthiophene-3-carbonyl)-1-oxa-4,9-diazaspiro[5.5]undecan-9-yl)methyl)phenyl)-2-methylpropan-2-ylamino)ethyl)quinolin-2(1H)-one ditrifluoroacetate], in assay [1], the IC50 is 1.58 nM. Moreover, in assay [2], the EC50 is 50.1 nM and the “β2 Intrinsic activity” value came out at 1.

As to `CC(C)c1cc(C(=O)N2CCOC3(CCN(Cc4cccc(CCNC[C@H](O)c5ccc(O)c6[nH]c(=O)ccc56)c4)CC3)C2)cs1` [Example 83, (R)-8-Hydroxy-5-(1-hydroxy-2-(3-((4-(5-isopropylthiophene-3-carbonyl)-1-oxa-4,9-diazaspiro[5.5]undecan-9-yl)methyl)phenethylamino)ethyl)quinolin-2(1H)-one ditrifluoroacetate], the IC50 in assay [1] was 0.501 nM. Also, in assay [2], the EC50 was 12.6 nM and the “β2 Intrinsic activity” value is on record as 0.8.

As to `CC(C)c1nc(C(=O)N2CCOC3(CCN(CCC[S+]([O-])CCCCNC[C@H](O)c4ccc(O)c5[nH]c(=O)sc45)CC3)C2)cs1` (stereo partly drawn) [Example 282, 4-Hydroxy-7-((1R)-1-hydroxy-2-(4-(3-(4-(2-isopropylthiazole-4-carbonyl)-1-oxa-4,9-diazaspiro[5.5]undecan-9-yl)propylsulfinyl)butylamino)ethyl)benzo[d]thiazol-2(3H)-one formate], the IC50 in assay [1] was 20 nM. For the same compound, in assay [2], the EC50 is 50.1 nM and the “β2 Intrinsic activity” value came to 1.

Regarding `CC(C)c1nc(C(=O)N2CCOC3(CCN(Cc4cccc(C(F)CNC[C@H](O)c5ccc(O)c6[nH]c(=O)sc56)c4)CC3)C2)cs1` (stereo partly drawn) [Example 39, 7-((1R)-2-(2-Fluoro-2-(3-((4-(2-isopropylthiazole-4-carbonyl)-1-oxa-4,9-diazaspiro[5.5]undecan-9-yl)methyl)phenyl)ethylamino)-1-hydroxyethyl)-4-hydroxybenzo[d]thiazol-2(3H)-one ditrifluoroacetate], the IC50 in assay [1] was 0.316 nM. In assay [2], the EC50 is 100 nM and the “β2 Intrinsic activity” value was 0.9.

Take `CCc1cc(C(=O)N2CCOC3(CCN(Cc4cccc(CCNC[C@H](O)c5ccc(O)c6[nH]c(=O)sc56)c4)CC3)C2)cs1` [Example 86, (R)-7-(2-(3-((4-(5-Ethylthiophene-3-carbonyl)-1-oxa-4,9-diazaspiro[5.5]undecan-9-yl)methyl)phenethylamino)-1-hydroxyethyl)-4-hydroxybenzo[d]thiazol-2(3H)-one ditrifluoroacetate]: the IC50 in assay [1] was 0.158 nM. For the same compound, in assay [2], the EC50 was 2.51 nM and the “β2 Intrinsic activity” value is 0.8.

For the compound `CC(C)c1nc(C(=O)N2CCOC3(CCN(Cc4ccc(C(F)(F)F)c(CCNC[C@H](O)c5ccc(O)c6[nH]c(=O)sc56)c4)CC3)C2)cs1` [Example 270, (R)-4-Hydroxy-7-(1-hydroxy-2-(5-((4-(2-isopropylthiazole-4-carbonyl)-1-oxa-4,9-diazaspiro[5.5]undecan-9-yl)methyl)-2-(trifluoromethyl)phenethylamino)ethyl)benzo[d]thiazol-2(3H)-one ditrifluoroacetate], the IC50 in assay [1] was 79.4 nM. For the same compound, in assay [2], the EC50 was 251 nM and the “β2 Intrinsic activity” value is 0.7.

As to `Cc1nc(C(=O)N2CCOC3(CCN(CCc4ccc(CCNC[C@H](O)c5ccc(O)c6[nH]c(=O)sc56)s4)CC3)C2)cs1` [Example 4, (R)-4-Hydroxy-7-(1-hydroxy-2-(2-(5-(2-(4-(2-methylthiazole-4-carbonyl)-1-oxa-4,9-diazaspiro[5.5]undecan-9-yl)ethyl)thiophen-2-yl)ethylamino)ethyl)benzo[d]thiazol-2(3H)-one ditrifluoroacetate], the IC50 in assay [1] was 1.26 nM. Further, in assay [2], the EC50 was 15.8 nM and the “β2 Intrinsic activity” value was found to be 0.9.

Regarding `CC(C)c1nc(C(=O)N2CCOC3(CCN(Cc4ccc(F)c(CCNC[C@H](O)c5ccc(O)c6[nH]c(=O)sc56)c4)CC3)C2)cs1` [Example 47, (R)-7-(2-(2-Fluoro-5-((4-(2-isopropylthiazole-4-carbonyl)-1-oxa-4,9-diazaspiro[5.5]undecan-9-yl)methyl)phenethylamino)-1-hydroxyethyl)-4-hydroxybenzo[d]thiazol-2(3H)-one ditrifluoroacetate], the IC50 in assay [1] is 0.501 nM. For the same compound, in assay [2], the EC50 is 15.8 nM and the “β2 Intrinsic activity” value stood at 0.9.

As to `CCc1cc(C(=O)N2CC(C)(C)OC3(CCN(Cc4cccc(CCNC[C@H](O)c5ccc(O)c6[nH]c(=O)ccc56)c4)CC3)C2)cs1` [Example 272, (R)-5-(2-(3-((4-(5-ethylthiophene-3-carbonyl)-2,2-dimethyl-1-oxa-4,9-diazaspiro[5.5]undecan-9-yl)methyl)phenethylamino)-1-hydroxyethyl)-8-hydroxyquinolin-2(1H)-one ditrifluoroacetate], the IC50 in assay [1] is 794 nM. Further, in assay [2], the EC50 was 10 nM and the “β2 Intrinsic activity” value is reported as 1.

As to `Cc1ccc(C(=O)N2CCOC3(CCN(Cc4cc(CCNC[C@H](O)c5ccc(O)c6[nH]c(=O)sc56)cc(F)c4F)CC3)C2)s1` [Example 32, (R)-7-(2-(3,4-Difluoro-5-((4-(5-methylthiophene-2-carbonyl)-1-oxa-4,9-diazaspiro[5.5]undecan-9-yl)methyl)phenethylamino)-1-hydroxyethyl)-4-hydroxybenzo[d]thiazol-2(3H)-one ditrifluoroacetate], the IC50 in assay [1] was 39.8 nM. Moreover, in assay [2], the EC50 was 3.16 nM and the “β2 Intrinsic activity” value is reported as 1.1.

Regarding `CC(C)c1nc(C(=O)N2CCOC3(CCN(CCCCCCC(C)(C)CCNC[C@H](O)c4ccc(O)c5[nH]c(=O)sc45)CC3)C2)cs1` [Example 279, (R)-4-Hydroxy-7-(1-hydroxy-2-(9-(4-(2-isopropylthiazole-4-carbonyl)-1-oxa-4,9-diazaspiro[5.5]undecan-9-yl)-3,3-dimethylnonylamino)ethyl)benzo[d]thiazol-2(3H)-one formate], the IC50 in assay [1] is 7.94 nM. Further, in assay [2], the EC50 was 316 nM and the “β2 Intrinsic activity” value came out at 0.9.

With `CC(C)c1nc(C(=O)N2CCOC3(CCN(Cc4cccc(C(C)(C)CNC[C@H](O)c5ccc(O)c6[nH]c(=O)ccc56)c4F)CC3)C2)cs1` [Example 92, (R)-5-(2-(2-(2-Fluoro-3-((4-(2-isopropylthiazole-4-carbonyl)-1-oxa-4,9-diazaspiro[5.5]undecan-9-yl)methyl)phenyl)-2-methylpropylamino)-1-hydroxyethyl)-8-hydroxyquinolin-2(1H)-one ditrifluoroacetate], the IC50 in assay [1] is 126 nM. For the same compound, in assay [2], the EC50 is 794 nM and the “β2 Intrinsic activity” value amounted to 0.9.

Turning to `Cc1nc(C(=O)N2CCOC3(CCN(CCCOc4ccc(CNC[C@H](O)c5ccc(O)c6[nH]c(=O)sc56)cc4)CC3)C2)cs1` [Example 8, (R)-4-Hydroxy-7-(1-hydroxy-2-(4-(3-(4-(2-methylthiazole-4-carbonyl)-1-oxa-4,9-diazaspiro[5.5]undecan-9-yl)propoxy)benzylamino)ethyl)benzo[d]thiazol-2(3H)-one ditrifluoroacetate], the IC50 in assay [1] was 3.98 nM. In addition, in assay [2], the EC50 was 39.8 nM and the “β2 Intrinsic activity” value amounted to 1.0.
